# Assay results as given in patent publication US10131652B2, “Pyrimidinyloxy benzene derivatives as herbicides” (E. I. DU PONT DE NEMOURS AND COMPANY, priority 2014, dated 2018).
# Columns and labels:
# Assay in all cases: Test F pre-/postemergence plant response
# Type in all cases: in vivo
# Conditions in all cases: scale 0 to 100
# [1] = test system: Brazilian crabgrass (Digitaria horizontalis)
# Method in brief: (§1)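 Values are visual ratings, where 100 is complete control and 0 is no effect, given after 14 to 21 days of greenhouse growth. Test chemicals in a non-phytotoxic, surfactant-containing solvent were sprayed on soil just after planting or on emerged seedlings at the 1- to 4-leaf stage.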
# [2] = test system: Italian ryegrass (Lolium multiflorum)
# Method in brief: as §1
# [3] = test system: barnyardgrass (Echinochloa crus-galli)
# Method in brief: as §1
# [4] = test system: dayflower (Virginia (VA) dayflower, Commelina virginica)
# Method in brief: as §1
# [5] = test system: green foxtail (Setaria viridis)
# Method in brief: as §1
# [6] = test system: hairy beggarticks (Bidens pilosa)
# Method in brief: as §1
# [7] = test system: johnsongrass (Sorghum halepense)
# Method in brief: as §1
# [8] = test system: lambsquarters (Chenopodium album)
# Method in brief: as §1
# [9] = test system: large (Lg) crabgrass (Digitaria sanguinalis)
# Method in brief: as §1
# [10] = test system: morningglory (Ipomoea coccinea)
# Method in brief: as §1
# [11] = test system: nightshade (eastern black nightshade, Solanum ptycanthum)
# Method in brief: as §1
# [12] = test system: ragweed (common ragweed, Ambrosia elatior)
# Method in brief: as §1
# [13] = test system: sandbur (southern sandbur, Cenchrus echinatus)
# Method in brief: as §1
# [14] = test system: waterhemp (common waterhemp, Amaranthus rudis)
# Method in brief: as §1
# [15] = test system: wild poinsettia (Euphorbia heterophylla)
# Method in brief: as §1
# [16] = test system: yellow nutsedge (Cyperus esculentus)
# Method in brief: as §1
structure (smiles),measurement,setting,value
CC(F)(F)c1cc(-c2ccccc2Oc2ncc(Br)cn2)no1 [Compound 149],"Plant response rating, Crabgrass, Brazil",[1]; 16 g ai/ha Postemergence,20
same,"Plant response rating, Crabgrass, Brazil",[1]; 16 g ai/ha Preemergence,0
same,"Plant response rating, Crabgrass, Brazil",[1]; 31 g ai/ha Postemergence,20
same,"Plant response rating, Crabgrass, Brazil",[1]; 31 g ai/ha Preemergence,15
same,"Plant response rating, Crabgrass, Brazil",[1]; 62 g ai/ha Postemergence,20
same,"Plant response rating, Crabgrass, Brazil",[1]; 62 g ai/ha Preemergence,35
same,"Plant response rating, Crabgrass, Brazil",[1]; 125 g ai/ha Postemergence,25
same,"Plant response rating, Crabgrass, Brazil",[1]; 125 g ai/ha Preemergence,85
same,"Plant response rating, Ryegrass, Italian",[2]; 16 g ai/ha Postemergence,0
same,"Plant response rating, Ryegrass, Italian",[2]; 16 g ai/ha Preemergence,0
same,"Plant response rating, Ryegrass, Italian",[2]; 31 g ai/ha Postemergence,10
same,"Plant response rating, Ryegrass, Italian",[2]; 31 g ai/ha Preemergence,0
same,"Plant response rating, Ryegrass, Italian",[2]; 62 g ai/ha Postemergence,10
same,"Plant response rating, Ryegrass, Italian",[2]; 125 g ai/ha Postemergence,5
same,"Plant response rating, Ryegrass, Italian",[2]; 125 g ai/ha Preemergence,40
same,"Plant response rating, Ryegrass, Italian",[2]; Preemergence,20
same,"Plant response rating, Barnyardgrass",[3]; 16 g ai/ha Postemergence,0
same,"Plant response rating, Barnyardgrass",[3]; 16 g ai/ha Preemergence,0
same,"Plant response rating, Barnyardgrass",[3]; 31 g ai/ha Postemergence,5
same,"Plant response rating, Barnyardgrass",[3]; 31 g ai/ha Preemergence,0
same,"Plant response rating, Barnyardgrass",[3]; 62 g ai/ha Postemergence,10
same,"Plant response rating, Barnyardgrass",[3]; 62 g ai/ha Preemergence,15
same,"Plant response rating, Barnyardgrass",[3]; 125 g ai/ha Postemergence,10
same,"Plant response rating, Barnyardgrass",[3]; 125 g ai/ha Preemergence,35
same,"Plant response rating, Dayflower, VA",[4]; 16 g ai/ha Postemergence,10
same,"Plant response rating, Dayflower, VA",[4]; 16 g ai/ha Preemergence,0
same,"Plant response rating, Dayflower, VA",[4]; 31 g ai/ha Postemergence,20
same,"Plant response rating, Dayflower, VA",[4]; 31 g ai/ha Preemergence,0
same,"Plant response rating, Dayflower, VA",[4]; 62 g ai/ha Postemergence,40
same,"Plant response rating, Dayflower, VA",[4]; 62 g ai/ha Preemergence,5
same,"Plant response rating, Dayflower, VA",[4]; 125 g ai/ha Postemergence,50
same,"Plant response rating, Dayflower, VA",[4]; 125 g ai/ha Preemergence,40
same,"Plant response rating, Foxtail, Green",[5]; 16 g ai/ha Preemergence,0
same,"Plant response rating, Foxtail, Green",[5]; 31 g ai/ha Preemergence,0
same,"Plant response rating, Foxtail, Green",[5]; 125 g ai/ha Preemergence,50
same,"Plant response rating, Foxtail, Green",[5]; Preemergence,50
same,"Plant response rating, Beggarticks",[6]; 16 g ai/ha Postemergence,5
same,"Plant response rating, Beggarticks",[6]; 16 g ai/ha Preemergence,0
same,"Plant response rating, Beggarticks",[6]; 31 g ai/ha Postemergence,30
same,"Plant response rating, Beggarticks",[6]; 31 g ai/ha Preemergence,0
same,"Plant response rating, Beggarticks",[6]; 62 g ai/ha Postemergence,40
same,"Plant response rating, Beggarticks",[6]; 62 g ai/ha Preemergence,0
same,"Plant response rating, Beggarticks",[6]; 125 g ai/ha Postemergence,50
same,"Plant response rating, Beggarticks",[6]; 125 g ai/ha Preemergence,0
same,"Plant response rating, Johnsongrass",[7]; 16 g ai/ha Preemergence,0
same,"Plant response rating, Johnsongrass",[7]; 31 g ai/ha Preemergence,0
same,"Plant response rating, Johnsongrass",[7]; 125 g ai/ha Preemergence,15
same,"Plant response rating, Johnsongrass",[7]; Preemergence,0
same,"Plant response rating, Lambsquarters",[8]; 31 g ai/ha Preemergence,0
same,"Plant response rating, Lambsquarters",[8]; 125 g ai/ha Preemergence,100
same,"Plant response rating, Lambsquarters",[8]; Preemergence,100
same,"Plant response rating, Crabgrass, Large",[9]; 16 g ai/ha Preemergence,0
same,"Plant response rating, Crabgrass, Large",[9]; 31 g ai/ha Preemergence,0
same,"Plant response rating, Crabgrass, Large",[9]; 62 g ai/ha Preemergence,70
same,"Plant response rating, Crabgrass, Large",[9]; 125 g ai/ha Preemergence,85
same,"Plant response rating, Morningglory",[10]; 16 g ai/ha Preemergence,0
same,"Plant response rating, Morningglory",[10]; 31 g ai/ha Preemergence,0
same,"Plant response rating, Morningglory",[10]; 125 g ai/ha Preemergence,10
same,"Plant response rating, Morningglory",[10]; Preemergence,0
same,"Plant response rating, Nightshade",[11]; 16 g ai/ha Preemergence,0
same,"Plant response rating, Nightshade",[11]; 31 g ai/ha Preemergence,80
same,"Plant response rating, Nightshade",[11]; 125 g ai/ha Preemergence,100
same,"Plant response rating, Nightshade",[11]; Preemergence,98
same,"Plant response rating, Ragweed",[12]; 16 g ai/ha Postemergence,10
same,"Plant response rating, Ragweed",[12]; 16 g ai/ha Preemergence,20
same,"Plant response rating, Ragweed",[12]; 31 g ai/ha Postemergence,40
same,"Plant response rating, Ragweed",[12]; 31 g ai/ha Preemergence,25
same,"Plant response rating, Ragweed",[12]; 62 g ai/ha Postemergence,30
same,"Plant response rating, Ragweed",[12]; 125 g ai/ha Postemergence,35
same,"Plant response rating, Ragweed",[12]; 125 g ai/ha Preemergence,20
same,"Plant response rating, Ragweed",[12]; Preemergence,35
same,"Plant response rating, Sandbur",[13]; 16 g ai/ha Postemergence,0
same,"Plant response rating, Sandbur",[13]; 16 g ai/ha Preemergence,0
same,"Plant response rating, Sandbur",[13]; 31 g ai/ha Postemergence,5
same,"Plant response rating, Sandbur",[13]; 31 g ai/ha Preemergence,0
same,"Plant response rating, Sandbur",[13]; 62 g ai/ha Postemergence,15
same,"Plant response rating, Sandbur",[13]; 125 g ai/ha Postemergence,10
same,"Plant response rating, Sandbur",[13]; 125 g ai/ha Preemergence,10
same,"Plant response rating, Sandbur",[13]; Preemergence,0
same,"Plant response rating, Waterhemp",[14]; 16 g ai/ha Postemergence,85
same,"Plant response rating, Waterhemp",[14]; 16 g ai/ha Preemergence,35
same,"Plant response rating, Waterhemp",[14]; 31 g ai/ha Postemergence,95
same,"Plant response rating, Waterhemp",[14]; 31 g ai/ha Preemergence,100
same,"Plant response rating, Waterhemp",[14]; 62 g ai/ha Postemergence,95
same,"Plant response rating, Waterhemp",[14]; 125 g ai/ha Postemergence,98
same,"Plant response rating, Waterhemp",[14]; 125 g ai/ha Preemergence,100
same,"Plant response rating, Waterhemp",[14]; Preemergence,100
same,"Plant response rating, Poinsettia, Wild",[15]; 16 g ai/ha Postemergence,50
same,"Plant response rating, Poinsettia, Wild",[15]; 16 g ai/ha Preemergence,0
same,"Plant response rating, Poinsettia, Wild",[15]; 31 g ai/ha Postemergence,40
same,"Plant response rating, Poinsettia, Wild",[15]; 31 g ai/ha Preemergence,0
same,"Plant response rating, Poinsettia, Wild",[15]; 62 g ai/ha Postemergence,60
same,"Plant response rating, Poinsettia, Wild",[15]; 125 g ai/ha Postemergence,70
same,"Plant response rating, Poinsettia, Wild",[15]; 125 g ai/ha Preemergence,35
same,"Plant response rating, Poinsettia, Wild",[15]; Preemergence,0
same,"Plant response rating, Nutsedge, Yellow",[16]; 16 g ai/ha Preemergence,0
same,"Plant response rating, Nutsedge, Yellow",[16]; 31 g ai/ha Preemergence,0
same,"Plant response rating, Nutsedge, Yellow",[16]; 125 g ai/ha Preemergence,15
same,"Plant response rating, Nutsedge, Yellow",[16]; Preemergence,0
